Where two headings read alike, the source gives them in different places.
Biological target: SCP1 (Homo sapiens, UniProt Q9GZU7)
Assay: PNθP phosphatase assay in the presence of phosphatase inhibitors
Format: biochemical

Sequence of SCP1 (Q9GZU7 other isoform, or with tags, fused parts or gaps): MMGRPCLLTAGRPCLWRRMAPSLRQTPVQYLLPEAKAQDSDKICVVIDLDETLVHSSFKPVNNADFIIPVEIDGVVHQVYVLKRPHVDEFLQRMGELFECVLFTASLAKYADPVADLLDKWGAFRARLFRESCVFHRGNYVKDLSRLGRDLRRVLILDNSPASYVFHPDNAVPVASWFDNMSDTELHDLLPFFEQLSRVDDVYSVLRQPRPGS

Molecule	SCP1 phosphatase activity in the presence of phosphatase inhibitor (GST-SCP1 214 (40 pmol), 20 mM PNθP, 1-10 μM inhibitor)	SCP1 phosphatase activity in the presence of phosphatase inhibitor
C=C1[C@@H](O)[C@@H]2O[C@]3(CC[C@H](/C=C/[C@@H](C)[C@@H]4CC(C)=C[C@@]5(O[C@H](C[C@@](C)(O)C(=O)O)CC[C@H]5O)O4)O3)CC[C@H]2O[C@@H]1[C@@H](O)C[C@H](C)[C@H]1O[C@@]2(CCCCO2)CC[C@H]1C [okadaic acid]	resistant	–
microcystin	–	resistant
